From the supplement of paper PMC4628005

Legend:
Details in all cases: drug exposure time: 96 h
17-AAG = compound: C=CCNC1=C2C[C@@H](C)C[C@H](OC)[C@H](O)[C@@H](C)/C=C(\C)[C@H](OC(N)=O)[C@@H](OC)/C=C\C=C(/C)C(=O)NC(=CC1=O)C2=O [17-AAG]
Method: (§1)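 Same SRB 96 h IC50 screen on breast cancer cell lines (RPMI 1640 + 10% FBS, collagen I-coated 96-well plates, triplicates, 12 dilutions), for drugs with a different dose range: Bortezomib up to 2e-5 M; Sirolimus and 17-AAG up to 2e-6 M. Sirolimus values at the 2e-6 M top dose are censored.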

Sirolimus = compound: CO[C@H]1C[C@@H]2CC[C@@H](C)[C@@](O)(O2)C(=O)C(=O)N2CCCC[C@H]2C(=O)O[C@H]([C@H](C)C[C@@H]2CC[C@@H](O)[C@H](OC)C2)CC(=O)[C@H](C)/C=C(\C)[C@@H](O)[C@@H](OC)C(=O)[C@H](C)C[C@H](C)/C=C/C=C/C=C/1C [Sirolimus]
Method: as §1

Bortezomib = compound: CC(C)C[C@H](NC(=O)[C@H](Cc1ccccc1)NC(=O)c1cnccn1)B(O)O [Bortezomib]
Method: as §1

Nutlin-3 = compound: COc1ccc(C2=N[C@@H](c3ccc(Cl)cc3)[C@@H](c3ccc(Cl)cc3)N2C(=O)N2CCNC(=O)C2)c(OC(C)C)c1 [Nutlin-3]
Method: (§2)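 Breast cancer cell lines were grown in RPMI 1640 with 10% FBS on collagen I-coated 96-well plates and treated for 96 h (from 24 h after seeding) with 12 dilutions per drug, in triplicate. Growth was read by sulforhodamine B total-protein staining (absorbance 570 nm) relative to diluent control, and IC50 was calculated. The top dose was 1e-5 M for most drugs; Bortezomib went to 2e-5 M and Sirolimus and 17-AAG to 2e-6 M[…].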

Mitoxantrone = compound: O=C1c2c(O)ccc(O)c2C(=O)c2c(NCCNCCO)ccc(NCCNCCO)c21 [Mitoxantrone]
Method: as §2

ARQ197 = compound: O=C1NC(=O)[C@@H](c2cn3c4c(cccc24)CCC3)[C@@H]1c1c[nH]c2ccccc12 [ARQ197]
Method: as §2

Tipifarnib = compound: Cn1cncc1[C@@](N)(c1ccc(Cl)cc1)c1ccc2c(c1)c(-c1cccc(Cl)c1)cc(=O)n2C [Tipifarnib]
Method: as §2

Quisinostat = compound: Cn1cc(CNCC2CCN(c3ncc(C(=O)NO)cn3)CC2)c2ccccc21 [Quisinostat]
Method: as §2

Erlotinib = compound: C#Cc1cccc(Nc2ncnc3cc(OCCOC)c(OCCOC)cc23)c1 [Erlotinib]
Method: as §2

Azacitidine = compound: Nc1ncn([C@@H]2O[C@H](CO)[C@@H](O)[C@H]2O)c(=O)n1 [Azacitidine]
Method: as §2

Lapatinib = compound: CS(=O)(=O)CCNCc1ccc(-c2ccc3ncnc(Nc4ccc(OCc5cccc(F)c5)c(Cl)c4)c3c2)o1 [Lapatinib]
Method: as §2

5-Fluorouracil = compound: O=c1[nH]cc(F)c(=O)[nH]1 [5-Fluorouracil]
Method: as §2

Serdemetan = compound: c1ccc2c(CCNc3ccc(Nc4ccncc4)cc3)c[nH]c2c1 [Serdemetan]
Method: as §2

Vorinostat = compound: O=C(CCCCCCC(=O)Nc1ccccc1)NO [Vorinostat]
Method: as §2

Cisplatin = compound: N.N.[Cl][Pt][Cl] [Cisplatin]
Method: as §2

Panobinostat = compound: Cc1[nH]c2ccccc2c1CCNCc1ccc(/C=C/C(=O)NO)cc1 [Panobinostat]
Method: as §2

Methotrexate = compound: CN(Cc1cnc2nc(N)nc(N)c2n1)c1ccc(C(=O)N[C@@H](CCC(=O)O)C(=O)O)cc1 [Methotrexate]
Method: as §2

Belinostat = compound: O=C(/C=C/c1cccc(S(=O)(=O)Nc2ccccc2)c1)NO [Belinostat]
Method: as §2

Sorafenib = compound: CNC(=O)c1cc(Oc2ccc(NC(=O)Nc3ccc(Cl)c(C(F)(F)F)c3)cc2)ccn1 [Sorafenib]
Method: as §2

Sunitinib = compound: CCN(CC)CCNC(=O)c1c(C)[nH]c(/C=C2\C(=O)Nc3ccc(F)cc32)c1C [Sunitinib]
Method: as §2

Decitabine = compound: Nc1ncn([C@H]2C[C@H](O)[C@@H](CO)O2)c(=O)n1 [Decitabine]
Method: as §2

Vandetanib = compound: COc1cc2/c(=N/c3ccc(Br)cc3F)nc[nH]c2cc1OCC1CCN(C)CC1 [Vandetanib]
Method: as §2

Brivanib = compound: Cc1cc2c(F)c(Oc3ncnn4cc(OC[C@@H](C)O)c(C)c34)ccc2[nH]1 [Brivanib]
Method: as §2

Doxorubicin = compound: COc1cccc2c1C(=O)c1c(O)c3c(c(O)c1C2=O)C[C@@](O)(C(=O)CO)C[C@@H]3O[C@H]1C[C@H](N)[C@H](O)[C@H](C)O1 [Doxorubicin]
Method: as §2

Tamoxifen = compound: CC/C(=C(\c1ccccc1)c1ccc(OCCN(C)C)cc1)c1ccccc1 [Tamoxifen]
Method: as §2

Dasatinib = compound: Cc1nc(Nc2ncc(C(=O)Nc3c(C)cccc3Cl)s2)cc(N2CCN(CCO)CC2)n1 [Dasatinib]
Method: as §2

Paclitaxel = compound: CC(=O)O[C@H]1C(=O)[C@@]2(C)[C@H]([C@H](OC(=O)c3ccccc3)[C@]3(O)C[C@H](OC(=O)[C@H](O)[C@@H](NC(=O)c4ccccc4)c4ccccc4)C(C)=C1C3(C)C)[C@]1(OC(C)=O)CO[C@@H]1C[C@@H]2O [Paclitaxel]
Method: as §2

MI-219 = compound: CC(C)(C)C[C@H]1N[C@@H](C(=O)NCC[C@H](O)CO)[C@H](c2cccc(Cl)c2)[C@@]12C(=O)Nc1cc(Cl)c(F)cc12 [MI-219]
Method: as §2

Docetaxel = compound: CC(=O)O[C@@]12CO[C@@H]1C[C@H](O)[C@@]1(C)C(=O)[C@H](O)C3=C(C)[C@@H](OC(=O)[C@H](O)[C@@H](NC(=O)OC(C)(C)C)c4ccccc4)C[C@@](O)([C@@H](OC(=O)c4ccccc4)[C@H]21)C3(C)C [Docetaxel]
Method: as §2

Gefitinib = compound: COc1cc2ncnc(Nc3ccc(F)c(Cl)c3)c2cc1OCCCN1CCOCC1 [Gefitinib]
Method: as §2

Row | Test System | IC50 (SRB growth assay) (17-AAG) | IC50 (SRB growth assay) (Sirolimus) | IC50 (SRB growth assay) (Bortezomib) | IC50 (SRB growth assay) (Nutlin-3) | IC50 (SRB growth assay) (Mitoxantrone) | IC50 (SRB growth assay) (ARQ197) | IC50 (SRB growth assay) (Tipifarnib) | IC50 (SRB growth assay) (Quisinostat) | IC50 (SRB growth assay) (Erlotinib) | IC50 (SRB growth assay) (Azacitidine) | IC50 (SRB growth assay) (Lapatinib) | IC50 (SRB growth assay) (5-Fluorouracil) | IC50 (SRB growth assay) (Serdemetan) | IC50 (SRB growth assay) (Vorinostat) | IC50 (SRB growth assay) (Cisplatin) | IC50 (SRB growth assay) (Panobinostat) | IC50 (SRB growth assay) (Methotrexate) | IC50 (SRB growth assay) (Belinostat) | IC50 (SRB growth assay) (Sorafenib) | IC50 (SRB growth assay) (Sunitinib) | IC50 (SRB growth assay) (Decitabine) | IC50 (SRB growth assay) (Vandetanib) | IC50 (SRB growth assay) (Brivanib) | IC50 (SRB growth assay) (Doxorubicin) | IC50 (SRB growth assay) (Tamoxifen) | IC50 (SRB growth assay) (Dasatinib) | IC50 (SRB growth assay) (Paclitaxel) | IC50 (SRB growth assay) (MI-219) | IC50 (SRB growth assay) (Docetaxel) | IC50 (SRB growth assay) (Gefitinib)
1 | MDA-MB 453 | 3.08 nM | 0.19 nM | 6.37 nM | > 10000 nM | 8.79 nM | 192 nM | 2140 nM | 2.01 nM | > 10000 nM | 7190 nM | 827 nM | > 10000 nM | 796 nM | 368 nM | > 10000 nM | 5.73 nM | > 10000 nM | 52.7 nM | 4930 nM | 6260 nM | 4170 nM | 5110 nM | > 10000 nM | 31.9 nM | 6360 nM | 3.93 nM | 2.14 nM | > 10000 nM | 0.872 nM | > 10000 nM
2 | HCC 1419 | 14 nM | 0.195 nM | 4.28 nM | > 10000 nM | 126 nM | 1210 nM | 550 nM | 3.8 nM | 2720 nM | > 10000 nM | 28.4 nM | > 10000 nM | 2450 nM | 542 nM | > 10000 nM | 6.31 nM | 164 nM | 174 nM | 3450 nM | 9930 nM | > 10000 nM | 3540 nM | > 10000 nM | 153 nM | 4580 nM | 6030 nM | 33.3 nM | > 10000 nM | 15.2 nM | 2680 nM
3 | MDA-MB 436 | 34.9 nM | 3.42 nM | 6.95 nM | > 10000 nM | 0.781 nM | 359 nM | 703 nM | 23.5 nM | 1970 nM | 1670 nM | 4660 nM | 981 nM | 1000 nM | 1890 nM | 1400 nM | 34.6 nM | 27.7 nM | 637 nM | 4830 nM | 2170 nM | 783 nM | 4100 nM | > 10000 nM | 5.7 nM | > 10000 nM | 1290 nM | 2.3 nM | > 10000 nM | 0.772 nM | 4960 nM
4 | HCC 70 | 37.3 nM | 0.222 nM | 2.84 nM | > 10000 nM | 74.3 nM | 324 nM | 85.1 nM | 5.48 nM | > 10000 nM | 2380 nM | 3750 nM | 5360 nM | 1570 nM | 781 nM | > 10000 nM | 8.26 nM | 30.1 nM | 356 nM | 6250 nM | 6810 nM | 2360 nM | 3960 nM | > 10000 nM | 40.6 nM | > 10000 nM | > 10000 nM | 2.08 nM | > 10000 nM | 0.539 nM | 9360 nM
